≈ marks a conversion by molar mass, not a printed value.
Key:
Format in all cases: functional
[1] = test system: Mycobacterium intracellulare; assay: Antibacterial activity against Mycobacterium intracellular.
[2] = test system: Mycobacterium tuberculosis; assay: Antibacterial activity against Mycobacterium tuberculosis H37Rv.
Mycobacterium kansasii = assay: Antibacterial activity against Mycobacterium kansasii

SMILES | MIC [1] | MIC [2] | MIC (Mycobacterium kansasii)
CCCCCCCCCCCCCCCC(=O)OCCCNC(=O)c1ccccc1SSc1ccccc1C(=O)NCCCOC(=O)CCCCCCCCCCCCCCC | > 100 µg/mL | 50 µg/mL (≈ 55.7 µM) | 100 µg/mL (≈ 111 µM)
CCCCCCCCCCCCNC(=O)c1ccccc1SSc1ccccc1C(=O)NCCCCCCCCCCCC | 50 µg/mL (≈ 78 µM) | 3.13 µg/mL (≈ 4.88 µM) | 25 µg/mL (≈ 39 µM)
O=C(O)Cc1ccc(NC(=O)c2ccccc2SSc2ccccc2C(=O)Nc2ccc(CC(=O)O)cc2)cc1 | 100 µg/mL (≈ 175 µM) | 100 µg/mL (≈ 175 µM) | 100 µg/mL (≈ 175 µM)
O=C(NCc1ccco1)c1ccccc1SSc1ccccc1C(=O)NCc1ccco1 | 25 µg/mL (≈ 53.8 µM) | 25 µg/mL (≈ 53.8 µM) | 25 µg/mL (≈ 53.8 µM)
O=C(Nc1cccc(Cl)c1)c1ccccc1SSc1ccccc1C(=O)Nc1cccc(Cl)c1 | 25 µg/mL (≈ 47.6 µM) | 3.13 µg/mL (≈ 5.96 µM) | 12.5 µg/mL (≈ 23.8 µM)
CCCCC(CC)CNC(=O)c1ccccc1SSc1ccccc1C(=O)NCC(CC)CCCC (stereo unspecified) | 50 µg/mL (≈ 94.5 µM) | 1.56 µg/mL (≈ 2.95 µM) | 3.13 µg/mL (≈ 5.92 µM)
CC(=O)OCCCNC(=O)c1ccccc1SSc1ccccc1C(=O)NCCCOC(C)=O | 25 µg/mL (≈ 49.5 µM) | 12.5 µg/mL (≈ 24.8 µM) | 25 µg/mL (≈ 49.5 µM)
O=C(Nc1ccc2ccccc2c1)c1ccccc1SSc1ccccc1C(=O)Nc1ccc2ccccc2c1 | 6.25 µg/mL (≈ 11.2 µM) | 1.56 µg/mL (≈ 2.8 µM) | 6.25 µg/mL (≈ 11.2 µM)
CCCCCCCCCCCCCCCCCCCC(=O)OCCCNC(=O)c1ccccc1SSc1ccccc1C(=O)NCCCOC(=O)CCCCCCCCCCCCCCCCCCC | > 100 µg/mL | > 100 µg/mL | > 100 µg/mL
CC(O)Cn1sc2ccccc2c1=O (stereo unspecified) | 12.5 µg/mL (≈ 59.7 µM) | 12.5 µg/mL (≈ 59.7 µM) | 25 µg/mL (≈ 119 µM)
O=C(Nc1ccccc1Cl)c1ccccc1SSc1ccccc1C(=O)Nc1ccccc1Cl | > 100 µg/mL | 25 µg/mL (≈ 47.6 µM) | 100 µg/mL (≈ 190 µM)
CCNC(=O)OCCNC(=O)c1ccccc1SSc1ccccc1C(=O)NCCOC(=O)NCC | 25 µg/mL (≈ 46.8 µM) | 25 µg/mL (≈ 46.8 µM) | 25 µg/mL (≈ 46.8 µM)
CCOC(=O)c1ccc(NC(=O)c2ccccc2SSc2ccccc2C(=O)Nc2ccc(C(=O)OCC)cc2)cc1 | 25 µg/mL (≈ 41.6 µM) | 3.13 µg/mL (≈ 5.21 µM) | 25 µg/mL (≈ 41.6 µM)
CC(C)(CO)NC(=O)c1ccccc1SSc1ccccc1C(=O)NC(C)(C)CO | 12.5 µg/mL (≈ 27.9 µM) | 12.5 µg/mL (≈ 27.9 µM) | 12.5 µg/mL (≈ 27.9 µM)
CCCCCCCCCCNC(=O)c1ccccc1SSc1ccccc1C(=O)NCCCCCCCCCC | 25 µg/mL (≈ 42.7 µM) | 12.5 µg/mL (≈ 21.4 µM) | 12.5 µg/mL (≈ 21.4 µM)
CCCCCCC(=O)OCCCNC(=O)c1ccccc1SSc1ccccc1C(=O)NCCCOC(=O)CCCCCC | 12.5 µg/mL (≈ 19.4 µM) | 0.78 µg/mL (≈ 1.21 µM) | 0.39 µg/mL (≈ 0.605 µM)

SMILES | MIC [1] | MIC [2] | MIC (Mycobacterium kansasii)
O=C(NCCO)c1ccccc1SSc1ccccc1C(=O)NCCO | 25 µg/mL (≈ 63.7 µM) | 6.25 µg/mL (≈ 15.9 µM) | 25 µg/mL (≈ 63.7 µM)
CCOC(CN1CCN(C(=O)c2ccccc2SSc2ccccc2C(=O)N2CCN(CC(OCC)c3ccccc3)CC2)CC1)c1ccccc1 (stereo unspecified) | > 100 µg/mL | > 100 µg/mL | > 100 µg/mL
O=C(Nc1ccc(Cl)c2ccccc12)c1ccccc1SSc1ccccc1C(=O)Nc1ccc(Cl)c2ccccc12 | > 100 µg/mL | 12.5 µg/mL (≈ 20 µM) | 50 µg/mL (≈ 79.9 µM)
CCc1cc(CC)cc(NC(=O)c2ccccc2SSc2ccccc2C(=O)Nc2cc(CC)cc(CC)c2)c1 | > 100 µg/mL | > 100 µg/mL | > 100 µg/mL
O=C(NC1CCCCC1)c1ccccc1SSc1ccccc1C(=O)NC1CCCCC1 | > 100 µg/mL | 12.5 µg/mL (≈ 26.7 µM) | 100 µg/mL (≈ 213 µM)
CCCC(=O)OCCCNC(=O)c1ccccc1SSc1ccccc1C(=O)NCCCOC(=O)CCC | 25 µg/mL (≈ 44.6 µM) | 6.25 µg/mL (≈ 11.1 µM) | 6.25 µg/mL (≈ 11.1 µM)
O=C(Nc1cccc2ccc(O)cc12)c1ccccc1SSc1ccccc1C(=O)Nc1cccc2ccc(O)cc12 | 50 µg/mL (≈ 84.9 µM) | 50 µg/mL (≈ 84.9 µM) | 50 µg/mL (≈ 84.9 µM)
O=C(c1ccccc1SSc1ccccc1C(=O)N1CCOCC1)N1CCOCC1 | > 100 µg/mL | 12.5 µg/mL (≈ 28.1 µM) | > 100 µg/mL
O=C(Nc1cccc2cccnc12)c1ccccc1SSc1ccccc1C(=O)Nc1cccc2cccnc12 | > 100 µg/mL | 25 µg/mL (≈ 44.7 µM) | 100 µg/mL (≈ 179 µM)
O=C(NCCCCO)c1ccccc1SSc1ccccc1C(=O)NCCCCO | 25 µg/mL (≈ 55.7 µM) | 6.25 µg/mL (≈ 13.9 µM) | 25 µg/mL (≈ 55.7 µM)
CC(O)CNC(=O)c1ccccc1SSc1ccccc1C(=O)NCC(C)O (stereo unspecified) | 25 µg/mL (≈ 59.4 µM) | 1.56 µg/mL (≈ 3.71 µM) | 25 µg/mL (≈ 59.4 µM)
CC(O)CNC(=O)c1ccc(SSc2ccc(C(=O)NCC(C)O)cc2)cc1 (stereo unspecified) | > 100 µg/mL | 100 µg/mL (≈ 238 µM) | > 100 µg/mL
CN1CCN(C(=O)c2ccccc2SSc2ccccc2C(=O)N2CCN(C)CC2)CC1.Cl.Cl | > 100 µg/mL | 100 µg/mL | > 100 µg/mL
Cl.Cl.O=C(c1ccccc1SSc1ccccc1C(=O)N1CCN(C(c2ccccc2)c2ccccc2)CC1)N1CCN(C(c2ccccc2)c2ccccc2)CC1 | > 100 µg/mL | > 100 µg/mL | > 100 µg/mL
Cl.Cl.O=C(NCC1CCNCC1)c1ccccc1SSc1ccccc1C(=O)NCC1CCNCC1 | > 100 µg/mL | 100 µg/mL | > 100 µg/mL
Cl.Cl.O=C(c1ccccc1SSc1ccccc1C(=O)N1CCN(Cc2ccccc2)CC1)N1CCN(Cc2ccccc2)CC1 | > 100 µg/mL | 25 µg/mL | 50 µg/mL

— ChEMBL document CHEMBL1122862, “Synthesis and antibacterial activity of 2,2'-dithiobis(benzamide) derivatives against Mycobacterium species” (1985)
